Molecular target: T1, human TAS1R2-R317G (subunit alone) (Homo sapiens, UniProt Q8TE23, R317G)
T1 construct: expressed in transfected cells; host or cells: HEK293T-Gα16gust44
T1 sequence (Q8TE23 20-839 R317G): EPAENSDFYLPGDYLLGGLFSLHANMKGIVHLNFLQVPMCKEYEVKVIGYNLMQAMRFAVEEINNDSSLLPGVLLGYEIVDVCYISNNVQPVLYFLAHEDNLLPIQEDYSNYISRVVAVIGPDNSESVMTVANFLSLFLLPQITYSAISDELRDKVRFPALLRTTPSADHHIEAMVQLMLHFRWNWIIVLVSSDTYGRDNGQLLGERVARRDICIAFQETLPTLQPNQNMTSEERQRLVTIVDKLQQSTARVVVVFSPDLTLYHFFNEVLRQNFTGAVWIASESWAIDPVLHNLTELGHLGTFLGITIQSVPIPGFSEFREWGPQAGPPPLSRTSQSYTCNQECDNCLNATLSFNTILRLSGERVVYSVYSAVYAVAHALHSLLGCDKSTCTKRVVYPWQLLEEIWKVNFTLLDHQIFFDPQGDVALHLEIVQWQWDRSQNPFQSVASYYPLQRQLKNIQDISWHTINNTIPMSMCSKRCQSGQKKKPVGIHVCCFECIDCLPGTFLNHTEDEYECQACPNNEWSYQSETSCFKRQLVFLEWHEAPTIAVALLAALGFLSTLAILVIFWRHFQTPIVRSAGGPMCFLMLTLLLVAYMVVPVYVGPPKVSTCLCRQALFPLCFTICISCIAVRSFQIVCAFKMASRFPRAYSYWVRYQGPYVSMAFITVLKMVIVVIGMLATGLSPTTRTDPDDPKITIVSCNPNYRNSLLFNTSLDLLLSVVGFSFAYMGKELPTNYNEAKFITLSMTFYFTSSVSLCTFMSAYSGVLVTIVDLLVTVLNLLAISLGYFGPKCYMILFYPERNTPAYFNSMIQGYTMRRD
Assay: Calcium mobilisation assay, TAS1R2-R317G subunit alone
Type: cell-based
From the text: The coding sequences for TAS1R2 and TAS1R3 were commercially synthesised, and the human codon was optimised for expression in human cells. The coding sequences of human TAS1R2 and TAS1R3 were subcloned and inserted into the mammalian expression vectors pcDNA6/myc-HisA and pcDNA4/myc-HisA (Invitrogen; Thermo Fisher Scientific; Illkirch, France) between the EcoRI and NotI restriction sites, generating the plasmids pcDNA6-TAS1R2 and pcDNA4-TAS1R3, respectively. To increase protein expression in mammalian cells, an upstream start codon was used, which was a sequence called MAX, corresponding to the QBI SP163 element also described in pcDNA4-HisMax (Invitrogen; Thermo Fisher Scientific; Illkirch, France). To measure the expression level of the receptor by immunohistochemistry, we used the FLAG sequence ([…]) in the C-terminal position, which encodes the FLAG tag epitope. […]
The HEK293T cells were kindly provided by Jay P. Slack (Givaudan Flavors Corporation; Cincinnati, OH, USA). […] The fluorescence intensity was measured for 90 s (excitation 488 nm, emission 510 nm) in an automated fluorometric FlexStation®3 Multi-Mode microplate reader (Molecular Devices; San Jose, CA, USA). […] The Ca^2+ changes were expressed as fractional changes in fluorescent light intensity: ΔF/F = (F − F0)/F0, where F was the fluorescent light intensity at each point, and F0 was the value of emitted fluorescent light prior to stimulus application. To calculate dose–response relationships, the changes in fluorescence upon stimulus application were averaged, mock-subtracted and baseline-corrected. […] The half-maximal effective concentrations (EC50 values) and maximal signal amplitudes were calculated using SigmaPlot software (version 15.0) (Systat Software; San Jose, CA, USA).
For in vitro calcium mobilisation assay performed on hTAS1R2-SNPs, hTAS1R3-SNPs and mTAS1R3-I60T, 6 to 7 concentrations were tested for each sweet compound, plus buffer alone. All concentration–receptor combinations were measured in duplicate, and each experiment was repeated at least 4 times (8 wells/concentration). […]

With `C=C(C)[C@@H]1CC=C(/C=N/O)CC1` [Perillartine, perillartine] the EC50 was 225 ± 31.9 µM, the “R1 = Variant EC50/WT EC50” value was 2.5 and the “Max ΔF/F0” value (maximal signal amplitude) was 0.17 ± 0.01.
